Laboratory results: US9463189B2 (BPV Holdings, LLC, priority 2007, dated 2016)
Structures can show the parent of a compound that is named as a salt.

Tests used:
Assay type in all cases: in vivo, C57B1/6J mice
NASH mice [1] = test: Hepatic fibrosis, Trichrome staining of liver sections
Description: Early Steatosis Model: C57B1/6J mice (22-39 days old) mice were used for the study. Mice were fed normal chow food (Lab Diet, 5P14Prolab Animal Diet, PMI Nutritional International, Brentwood, Mo., Cat# RMH 2500) or 58% high fat diet (HFD, 58 kcal % fat and corn starch with purple dye, Research Diets, New Brunswick, N.J., Cat# D12330 equivalent to Western diet) for 120-150 days. […] This group is referred to as the HFD-low body group in FIG. 1A (insulin & liver fat accumulation˜normal). On the other hand, one fifth of the mice gained 60-70% higher body weight (compared to normal chow fed mice) while on the same HFD diet (NASH group, very high insulin and liver fat) further shown in FIG. 1A. […]
The development of NASH was further confirmed using histological analyses of liver. The sections were analyzed for 1) hepatic steatosis 2) necroinflammation, and 3) fibrosis. Histological analyses of hepatic steatosis was assessed by quantitative image analysis of Oil Red O stain in liver sections and defined as the percentage of Oil Red ‘O’ positive area relative to the total image area.
Following 120-150 days on the HFD, mice in the NASH group were treated with Compound 2 (5 or 10 mg/Kg/day) or vehicle (10% Encapsin) for 42 days. […] Body weight and food intake was measured throughout the study. […]

NASH mice [2] = test: Glucose tolerance testing (ipGTT) in NASH mice
Description: Following 120-150 days on the HFD, mice in the NASH group were treated with Compound 2 (5 or 10 mg/Kg/day) or vehicle (10% Encapsin) for 42 days. Fasting and post prandial (PP) blood draws were taken at the beginning of the study (compound treatment) to identify and confirm the NASH group and during the study to evaluate various pharmacological responses. Since the NASH mice are severely hyperinsulinemic compared to NC mice, glucose tolerance testing (GTT, measures peripheral insulin resistance) was performed to evaluate the effect of Compound 2 on improvement of peripheral insulin sensitivity. […] Body weight and food intake was measured throughout the study.
Mice were then fasted overnight at 1700 hours for an experiment the following morning at 9:30 am. The animals were restrained in a towel to reduce handling stress and blood collection was from tail nick. Heat lamps were turned on 5 minutes prior to blood draws to warm animals slightly facilitating the flow of blood resulting in a decreased collection time. Blood glucose was measured using an Accu-check Compact Monitoring Kit (Roche Diagnostics, Indianapolis, Ind., Cat #3149137). Blood was also collected (˜100 μl) into EDTA microvettes (Sarstedt, Newton, N.C., Cat#16.444.100) for insulin ELISA analysis. After baseline blood collection, 2 g/kg Dextrose (Hospira, Lake Forest, Ill., NDC#0409-6648-02) was administered by intraperitoneal injection followed by glucose readings and blood draws (˜50 ul) at time points of 15, 30, 60, and 120 minutes post glucose challenge. Mice were kept in their home cages in between collection intervals.
Insulin fasting plasma samples were tested using Mercodia ultra sensitive mouse insulin ELISA: 2.5 μL EDTA plasma, ALPCO Diagnostics, Uppsala, Sweden, Cat #08-10-1150-99, LOQ (0.22-7.1 μg/L). Mouse JE/MCP-1 post prandial samples were collected at sacrifice. 12.5 μL EDTA plasma, R & D Systems, Minneapolis, Minn., Cat # MFE00, LOQ (15.6-1000 pg/mL).

NASH mice [3] = test: Macrophage infiltration in liver, F4/80 staining
Description: NASH-induced inflammation and lipid accumulation in the liver promotes infiltration of monocytes from peripheral circulation into the liver. Hepatic inflammatory status of NASH mice was assessed by histological assessment of the presence of macrophage specific markers including F4/80 in liver sections. An F4/80 antibody stain used is to quantitatively differentiate monocyte/macrophage cell population in the blood and tissue: infiltrating monocytes are F4/80 bright whereas liver macrophages (Kupffer cells) are F4/80 dull. There was a striking increase in the number of F4/80 bright macrophages in the liver of the NASH mice (data not shown) that is attenuated by treatment with Compound 2 (42 days, 5 mg/Kg/day) treated NASH (FIG. 4).
F4/80 stain was used to illustrate macrophage infiltration in liver tissue. The following protocol was followed: • 1. Check the number of sections per slide; if there is 1 section then use 2 slides from the same group per staining run (1 for ctrl IgG and 1 for primary antibody of interest). If there are 2 sections per slide then use 1 slide per group per run and separate the sections using a PAP pen. • 2. De-paraffin slides through 3×5-minutes Propar clearant, and re-hydrate with 5-minutes each in decreased concentrations of reagent alcohol to water (100%, 95%, 75%, water). • 3. Use Citrate buffer pH 6.0 for HIER (heat-induced epitope retrieval). […]

[4] = oral administration, NASH mice, summary
[5] = oral administration, NASH mice, p<0.05 vs. vehicle

## C[C@@H]1CN(Cc2ccc(OC(F)(F)F)cc2)C[C@H](C)N1S(=O)(=O)c1cccc2c1C[C@@H](C(=O)O)C2 [Compound 2, (S)-4-[cis-2,6-Dimethyl-4-(4-trifluoromethoxy-benzyl)-piperazine-1-sulfonyl]-indan-2-carboxylic acid tosylate]
NASH mice [1]; 10 mg/Kg/day, p<0.03, FIG. 3B
  attenuation of progression of fibrosis, Trichrome staining of liver sections: 41%
NASH mice [1]; [4]
  progression to fibrosis measured by histological presence of collagen deposits in the liver: attenuated progression to fibrosis
NASH mice [2]; 21 days, 10 mg/Kg/day, compared to vehicle-treated animals
  insulin secretion during ipGTT: reduced insulin secretion
NASH mice [2]; 21 days, 10 mg/Kg/day, ipGTT, compared to vehicle-treated animals
  peripheral insulin resistance: improved peripheral insulin resistance
NASH mice [2]; [5]
  glucose disposal: improved glucose disposal
  insulin sensitivity: improved insulin sensitivity
NASH mice [3]; 42 days, 5 mg/Kg/day, FIG. 4
  number of F4/80 bright macrophages in the liver of the NASH mice: attenuated
NASH mice [3]; [4]
  macrophage infiltration in the liver: attenuated macrophage infiltration
